Results on 6 molecules are retold here after patent US9925130B2, “Composition with zinc amino acid/trimethylglycine halide precursors” (Colgate-Palmolive Company, priority 2012, dated 2018).

In series [1] the test system is S. aureus. The experiment in a line: Zone of inhibition test on TSA plates. In kind it is cell-based. The protocol:
(§1) A zone of inhibition test is conducted on several materials: zinc oxide and amino acid hydrohalide alone and a mixture formed from zinc oxide and amino acid hydrohalide. The method involves making a lawn of freshly prepared bacterial culture on TSA (trypticase soy agar) plates. Sterile filter paper discs are seeded with 20 μl of test sample (supernatant or mixture). Sample-coated filter paper discs are air dried and applied onto the bacterial lawn on TSA plates. Plates are incubated for 20 hours at 37° C.

Series [2] has as its system C. minutissimum. The experiment in a line: Zone of inhibition test on TSA plates. It counts as cell-based. The following applies: Table 3, sample type not given. The protocol: as §1
Similar antibacterial efficacy is seen when tetrabasic zinc chloride is used in place of zinc oxide as the source of zinc ions.

The subject of series [3] is C. xerosis. Nature of the series: Zone of inhibition test on TSA plates. The following applies: 20 h 37° C. It counts as cell-based. Here is the method: as §1
Series [4] deals with S. epider. The experiment in a line: Zone of inhibition test on TSA plates. In kind it is cell-based. As to conditions: 20 h 37° C. The protocol: as §1
Series [5] can be described thus: Hydrolysis reaction: pH and turbidity of diluted ZLC solutions before and after aging. It counts as physicochemical. The following applies: for pH after aging / turbidity after aging (NTU): 37° C. over 5 hours. Here is the method: A 185 mg/ml solution of ZLC is prepared and diluted several-fold and aged in a 37° C. oven over 5 hours for turbidity studies. […] Turbidity of the solutions is measured using a nephelometer, results being given in nephelometric turbidity units (NTU).
The precipitates formed in the 8×, 16× and 32× diluted solutions are collected by centrifugation and identified as crystalline ZnO by PXRD. From the supernatant, a single crystal is grown and shown by X-ray diffraction to be Lysine Monohydrochloride Dihydrate (Lysine.HCl.2H2O).

The target of series [6] is Bovine Serum Albumin (BSA) (Bos taurus, UniProt P02769). Nature of the series: Flocculation of ZLC in the presence of protein (BSA): turbidity and pH. It counts as physicochemical. As to conditions: for observation / pH / Turbidity (NTU): ZLC about 15 mg/ml, 5 hours 37° C. Here is the method:
Turbidity and pH of solutions are measured 5 hours after the mixtures were placed in a 37° C. oven, and the results are shown in Table 6.

A short description of series [7]: Solubilization of zinc: free Zn2+ in supernatant by atomic absorption. In kind it is physicochemical. The following applies: dispersed in water, equilibrated overnight. From the text:
Ingredients are dispersed in water, equilibrated overnight, and the supernatant analyzed for free Zn^2+ by atomic absorption.

Where [8] appears, read: sample 1: DI water, 0% BSA, pH 6.4.
[9] abbreviates: sample 3: 1% BSA, pH adjusted to 5.1.

Molecules are shown by their SMILES. Where only a bound is given, the exact number is not on record here.

Bovine Serum Albumin (BSA), sequence (P02769 25-607): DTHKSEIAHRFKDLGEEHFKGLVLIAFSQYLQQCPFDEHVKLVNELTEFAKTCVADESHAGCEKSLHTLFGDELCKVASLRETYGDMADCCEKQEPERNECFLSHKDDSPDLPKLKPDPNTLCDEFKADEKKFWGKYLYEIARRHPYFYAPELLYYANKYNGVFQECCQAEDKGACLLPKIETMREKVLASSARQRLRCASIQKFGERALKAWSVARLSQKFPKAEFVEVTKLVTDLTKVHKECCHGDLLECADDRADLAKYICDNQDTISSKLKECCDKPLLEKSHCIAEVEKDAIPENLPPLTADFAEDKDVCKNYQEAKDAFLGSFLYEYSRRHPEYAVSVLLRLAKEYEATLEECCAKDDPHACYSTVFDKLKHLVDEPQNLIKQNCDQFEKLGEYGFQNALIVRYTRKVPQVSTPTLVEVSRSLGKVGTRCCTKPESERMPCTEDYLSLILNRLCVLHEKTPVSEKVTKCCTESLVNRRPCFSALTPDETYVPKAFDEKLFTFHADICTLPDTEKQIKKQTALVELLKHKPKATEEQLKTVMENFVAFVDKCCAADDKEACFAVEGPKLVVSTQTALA

For `N=C(N)NCCC[C@H](N)C(=O)O` [Arginine 4%, arginine], the “Zone of Inhibition” value in series [1] (Table 3, sample type not given) turned out to be 0 mm; in series [2] it was 0 mm.
Consider `NCCCC[C@H](N)C(=O)O` [Lysine 4%, lysine], for which the “Zone of Inhibition” value turned out to be 0 mm in series [1] (Table 3, sample type not given) and 0 mm in series [2].
Take `Cl.NCCCC[C@H](N)C(=O)O` [Lysine-HCl 23.2%, lysine hydrochloride]: the “Zone of Inhibition” value in series [3] (Dry Sample, As is) is 0 mm; in series [3] (Wet Sample, As is), 0 mm; in series [1] (Dry Sample, As is, 20 h 37° C.), 0 mm; in series [1] (Table 3, sample type not given), 0 mm; in series [1] (Wet Sample, As is, 20 h 37° C.), 0 mm; in series [4] (Dry Sample, As is) it was 0 mm. In addition, the “Zone of Inhibition” value in series [4] (Wet Sample, As is) is listed as 0 mm; in series [2], 0 mm.
For the molecule `[Cl-].[Cl-].[OH-].[OH-].[OH-].[OH-].[OH-].[OH-].[OH-].[OH-].[Zn+2].[Zn+2].[Zn+2].[Zn+2].[Zn+2]` [TBZC (4%), Tetrabasic zinc chloride], the “Zone of Inhibition” value in series [1] (Table 3, Mixture) came out at 6 mm; in series [1] (Table 3, Supernat), 6 mm.
For the molecule `NCCCCC(N)C(=O)O.NCCCCC(N)C(=O)O.O.O.[Cl-].[Cl-].[Zn+2]` (centres unmarked) [ZLC, [Zn(Lysine)2Cl]^+Cl^−.2H2O], the “initial pH” value is 8 in series [5] (5.78 mg/ml); 7.8 in series [5] (11.56 mg/ml); 7.7 in series [5] (23.125 mg/ml); 7.4 in series [5] (46.25 mg/ml); 7 in series [5] (92.5 mg/ml); 6.8 in series [5] (185 mg/ml). Also, the pH after aging in series [5] (5.78 mg/ml) is listed as 8; in series [5] (11.56 mg/ml) it was 7.8; in series [5] (23.125 mg/ml), 7.7; in series [5] (46.25 mg/ml), 7.4; in series [5] (92.5 mg/ml), 7; in series [5] (185 mg/ml), 6.8. Also, the “turbidity after aging (NTU)” value is recorded as greater than 1000 NTU in series [5] (5.78 mg/ml); greater than 1000 NTU in series [5] (11.56 mg/ml); 2.8 NTU in series [5] (46.25 mg/ml); 2.6 NTU in series [5] (92.5 mg/ml); 4.1 NTU in series [5] (185 mg/ml). Besides, the “initial turbidity (NTU)” value is recorded as 0.7 NTU in series [5] (23.125 mg/ml), 1.5 NTU in series [5] (46.25 mg/ml), 2.8 NTU in series [5] (92.5 mg/ml) and 4.7 NTU in series [5] (185 mg/ml). The “observation as the 185 mg/ml solution is diluted” value in series [5] (diluted several-fold, 37° C.) is “white precipitate forms”. Further, the “stability of the complex upon dilution” value in series [5] (precipitates of 8×, 16×, 32× dilutions identified as crystalline ZnO by PXRD, Lysine.HCl.2H2O from supernatant) is listed as “disassociates upon dilution, with consequent precipitation of zinc oxide”. For the same molecule, the flocculation of proteins entry in series [6] (proteins such as BSA) is listed as “ability to flocculate proteins”. Moreover, the observation result is “slightly cloudy” in series [6] (setting [8]); “precipitate” in series [6] (sample 2: 1% BSA, pH 7.2); “precipitate” in series [6] (setting [9]). Besides, the pH in series [6] (setting [8]) turned out to be 8; in series [6] (sample 2: 1% BSA, pH 7.2), 8.2; in series [6] (setting [9]), 8. Also, the “Turbidity (NTU)” value in series [6] (sample 2: 1% BSA, pH 7.2) is listed as greater than 1000 NTU; in series [6] (setting [9]), greater than 1000 NTU.
Consider `[O]=[Zn]` [ZnO(4%), zinc oxide], for which, in series [7], the “Free Zn” value is recorded as 11 ppm. For the same molecule, the “Zone of Inhibition” value turned out to be 0 mm in series [3] (Dry Sample, Mixture); 0 mm in series [3] (Dry Sample, Supernatant); 0 mm in series [3] (Wet Sample, Mixture); 0 mm in series [3] (Wet Sample, Supernatant); 7 mm in series [1] (Dry Sample, Mixture, 20 h 37° C.); 0 mm in series [1] (Dry Sample, Supernatant, 20 h 37° C.). In addition, the “Zone of Inhibition” value came out at 7 mm in series [1] (Wet Sample, Mixture, 20 h 37° C.); 0 mm in series [1] (Wet Sample, Supernatant, 20 h 37° C.); 10 mm in series [4] (Dry Sample, Mixture); 0 mm in series [4] (Dry Sample, Supernatant); 12 mm in series [4] (Wet Sample, Mixture); 0 mm in series [4] (Wet Sample, Supernatant).
